How the values were obtained:
Format in all cases: in vivo
Abutilon theophrasti [1] = assay: Herbicidal activity, preemergence test; details: pre; sprayed onto soil, 800 g of active material per hectare; evaluated 3 weeks after treatment
Procedure: (§1) To evaluate their herbicidal activity, compounds according to the invention are tested using a representative range of plants: TRZAW Triticum aestivum HORVW Hordeum vulgare ZEAMX Zea mays GOSHI Gossypium hirsutum HELAN Helianthus annuus GLYMA Glycine max ALOMY Alopecurus myosuroides SETVI Setaria viridis ECHCG Echinochloa crus-galli GALAP Galium aparine STEME Stellaria media VERPE Veronica persica VIOAR Viola arvensis IPOHE Ipomoea hederacea LAMPU Lamium purpureum PAPRH Papaver rhoeas MATIN Matricaria inodora AMARE Amaranthus retroflexus ABUTH Abutilon theophrasti AMBEL Ambrosia artemisifolia CHEAL Chenopodium album
(§2) The tests fall into two categories, preemergence and postemergence. The preemergence tests involve spraying a liquid formulation of the compound onto the soil in which the seeds have recently been sown. The postemergence tests involve spraying a liquid formulation of the compound onto seedling plants.
(§3) The soil used in the tests is a prepared horticultural loam.
(§4) The formulations used in the tests are prepared from solutions of the test compounds in acetone containing 0.4% by weight of an alkylphenol/ethylene oxide condensate available under the trade mark TRITON X-155. These acetone solutions are diluted with water and the resulting formulations applied at dosage levels corresponding to 800 g of active material per hectare in a volume equivalent to 900 litres per hectare.
(§5) In the preemergence tests untreated sown soil and in the postemergence tests untreated soil bearing seedling plants are used as controls.
(§6) Results of herbicide evaluation are expressed on a rating scale (0-9). The scale is based upon a visual observation of plant stand, vigor, malformation, size, chlorosis, and general plant appearance as compared to a control. Preemergence and postemergence treatments are evaluated at 3 and 2 weeks after treatment, respectively.

Alopecurus myosuroides [2] = assay: Herbicidal activity, preemergence test; details: pre; sprayed onto soil, 800 g of active material per hectare; evaluated 3 weeks after treatment
Procedure: as §1, §2, §3, §4, §5, §6

Amaranthus retroflexus [3] = assay: Herbicidal activity, preemergence test; details: pre; sprayed onto soil, 800 g of active material per hectare; evaluated 3 weeks after treatment
Procedure: as §1, §2, §3, §4, §5, §6

Ambrosia artemisifolia [4] = assay: Herbicidal activity, preemergence test; details: pre; sprayed onto soil, 800 g of active material per hectare; evaluated 3 weeks after treatment
Procedure: as §1, §2, §3, §4, §5, §6

Chenopodium album [5] = assay: Herbicidal activity, preemergence test; details: pre; sprayed onto soil, 800 g of active material per hectare; evaluated 3 weeks after treatment
Procedure: as §1, §2, §3, §4, §5, §6

Galium aparine [6] = assay: Herbicidal activity, preemergence test; details: pre; sprayed onto soil, 800 g of active material per hectare; evaluated 3 weeks after treatment
Procedure: as §1, §2, §3, §4, §5, §6

Glycine max [7] = assay: Herbicidal activity, preemergence test; details: pre; sprayed onto soil, 800 g of active material per hectare; evaluated 3 weeks after treatment
Procedure: as §1, §2, §3, §4, §5, §6

Gossypium hirsutum [8] = assay: Herbicidal activity, preemergence test; details: pre; sprayed onto soil, 800 g of active material per hectare; evaluated 3 weeks after treatment
Procedure: as §1, §2, §3, §4, §5, §6

Hordeum vulgare [9] = assay: Herbicidal activity, preemergence test; details: pre; sprayed onto soil, 800 g of active material per hectare; evaluated 3 weeks after treatment
Procedure: as §1, §2, §3, §4, §5, §6

Ipomoea hederacea [10] = assay: Herbicidal activity, preemergence test; details: pre; sprayed onto soil, 800 g of active material per hectare; evaluated 3 weeks after treatment
Procedure: as §1, §2, §3, §4, §5, §6

Lamium purpureum [11] = assay: Herbicidal activity, preemergence test; details: pre; sprayed onto soil, 800 g of active material per hectare; evaluated 3 weeks after treatment
Procedure: as §1, §2, §3, §4, §5, §6

Matricaria inodora [12] = assay: Herbicidal activity, preemergence test; details: pre; sprayed onto soil, 800 g of active material per hectare; evaluated 3 weeks after treatment
Procedure: as §1, §2, §3, §4, §5, §6

Papaver rhoeas [13] = assay: Herbicidal activity, preemergence test; details: pre; sprayed onto soil, 800 g of active material per hectare; evaluated 3 weeks after treatment
Procedure: as §1, §2, §3, §4, §5, §6

Setaria viridis [14] = assay: Herbicidal activity, preemergence test; details: pre; sprayed onto soil, 800 g of active material per hectare; evaluated 3 weeks after treatment
Procedure: as §1, §2, §3, §4, §5, §6

Stellaria media [15] = assay: Herbicidal activity, preemergence test; details: pre; sprayed onto soil, 800 g of active material per hectare; evaluated 3 weeks after treatment
Procedure: as §1, §2, §3, §4, §5, §6

Triticum aestivum [16] = assay: Herbicidal activity, preemergence test; details: pre; sprayed onto soil, 800 g of active material per hectare; evaluated 3 weeks after treatment
Procedure: as §1, §2, §3, §4, §5, §6

Veronica persica [17] = assay: Herbicidal activity, preemergence test; details: pre; sprayed onto soil, 800 g of active material per hectare; evaluated 3 weeks after treatment
Procedure: as §1, §2, §3, §4, §5, §6

Zea mays [18] = assay: Herbicidal activity, preemergence test; details: pre; sprayed onto soil, 800 g of active material per hectare; evaluated 3 weeks after treatment
Procedure: as §1, §2, §3, §4, §5, §6

Abutilon theophrasti [19] = assay: Herbicidal activity, postemergence test; details: post; sprayed onto seedling plants, 800 g of active material per hectare; evaluated 2 weeks after treatment
Procedure: as §1, §2, §3, §4, §5, §6

Alopecurus myosuroides [20] = assay: Herbicidal activity, postemergence test; details: post; sprayed onto seedling plants, 800 g of active material per hectare; evaluated 2 weeks after treatment
Procedure: as §1, §2, §3, §4, §5, §6

Amaranthus retroflexus [21] = assay: Herbicidal activity, postemergence test; details: post; sprayed onto seedling plants, 800 g of active material per hectare; evaluated 2 weeks after treatment
Procedure: as §1, §2, §3, §4, §5, §6

Ambrosia artemisifolia [22] = assay: Herbicidal activity, postemergence test; details: post; sprayed onto seedling plants, 800 g of active material per hectare; evaluated 2 weeks after treatment
Procedure: as §1, §2, §3, §4, §5, §6

Chenopodium album [23] = assay: Herbicidal activity, postemergence test; details: post; sprayed onto seedling plants, 800 g of active material per hectare; evaluated 2 weeks after treatment
Procedure: as §1, §2, §3, §4, §5, §6

Galium aparine [24] = assay: Herbicidal activity, postemergence test; details: post; sprayed onto seedling plants, 800 g of active material per hectare; evaluated 2 weeks after treatment
Procedure: as §1, §2, §3, §4, §5, §6

Glycine max [25] = assay: Herbicidal activity, postemergence test; details: post; sprayed onto seedling plants, 800 g of active material per hectare; evaluated 2 weeks after treatment
Procedure: as §1, §2, §3, §4, §5, §6

Gossypium hirsutum [26] = assay: Herbicidal activity, postemergence test; details: post; sprayed onto seedling plants, 800 g of active material per hectare; evaluated 2 weeks after treatment
Procedure: as §1, §2, §3, §4, §5, §6

Hordeum vulgare [27] = assay: Herbicidal activity, postemergence test; details: post; sprayed onto seedling plants, 800 g of active material per hectare; evaluated 2 weeks after treatment
Procedure: as §1, §2, §3, §4, §5, §6

Ipomoea hederacea [28] = assay: Herbicidal activity, postemergence test; details: post; sprayed onto seedling plants, 800 g of active material per hectare; evaluated 2 weeks after treatment
Procedure: as §1, §2, §3, §4, §5, §6

Lamium purpureum [29] = assay: Herbicidal activity, postemergence test; details: post; sprayed onto seedling plants, 800 g of active material per hectare; evaluated 2 weeks after treatment
Procedure: as §1, §2, §3, §4, §5, §6

Matricaria inodora [30] = assay: Herbicidal activity, postemergence test; details: post; sprayed onto seedling plants, 800 g of active material per hectare; evaluated 2 weeks after treatment
Procedure: as §1, §2, §3, §4, §5, §6

Papaver rhoeas [31] = assay: Herbicidal activity, postemergence test; details: post; sprayed onto seedling plants, 800 g of active material per hectare; evaluated 2 weeks after treatment
Procedure: as §1, §2, §3, §4, §5, §6

Setaria viridis [32] = assay: Herbicidal activity, postemergence test; details: post; sprayed onto seedling plants, 800 g of active material per hectare; evaluated 2 weeks after treatment
Procedure: as §1, §2, §3, §4, §5, §6

Stellaria media [33] = assay: Herbicidal activity, postemergence test; details: post; sprayed onto seedling plants, 800 g of active material per hectare; evaluated 2 weeks after treatment
Procedure: as §1, §2, §3, §4, §5, §6

Triticum aestivum [34] = assay: Herbicidal activity, postemergence test; details: post; sprayed onto seedling plants, 800 g of active material per hectare; evaluated 2 weeks after treatment
Procedure: as §1, §2, §3, §4, §5, §6

Veronica persica [35] = assay: Herbicidal activity, postemergence test; details: post; sprayed onto seedling plants, 800 g of active material per hectare; evaluated 2 weeks after treatment
Procedure: as §1, §2, §3, §4, §5, §6

Zea mays [36] = assay: Herbicidal activity, postemergence test; details: post; sprayed onto seedling plants, 800 g of active material per hectare; evaluated 2 weeks after treatment
Procedure: as §1, §2, §3, §4, §5, §6

`C[C@H](NC(=O)c1nnc(-c2ccc(F)cc2)o1)c1ccccc1` [Example 7] was tested, and the “ABUTH control rating (0-9)” value (Abutilon theophrasti [1]) was 8 (approaching complete kill), the “ALOMY control rating (0-9)” value (Alopecurus myosuroides [2]) was 4 (injury) and the “AMARE control rating (0-9)” value (Amaranthus retroflexus [3]) was 9 (complete kill). For the same molecule, the “AMBEL control rating (0-9)” value (Ambrosia artemisifolia [4]) was 0 (no effect), the “CHEAL control rating (0-9)” value (Chenopodium album [5]) was 8 (approaching complete kill) and the “GALAP control rating (0-9)” value (Galium aparine [6]) was 1 (trace effect). For the same molecule, the “GLXMA control rating (0-9)” value (Glycine max [7]) was 1 (trace effect), the “GOSHI control rating (0-9)” value (Gossypium hirsutum [8]) was 0 (no effect) and the “HORVW control rating (0-9)” value (Hordeum vulgare [9]) was 0 (no effect). For the same molecule, the “IPOHE control rating (0-9)” value (Ipomoea hederacea [10]) was 0 (no effect), the “LAMPU control rating (0-9)” value (Lamium purpureum [11]) was 9 (complete kill) and the “MATIN control rating (0-9)” value (Matricaria inodora [12]) was 9 (complete kill). The “PAPRH control rating (0-9)” value (Papaver rhoeas [13]) was 9 (complete kill), the “SETVI control rating (0-9)” value (Setaria viridis [14]) was 9 (complete kill) and the “STEME control rating (0-9)” value (Stellaria media [15]) was 9 (complete kill). The “TRZAW control rating (0-9)” value (Triticum aestivum [16]) was 0 (no effect), the “VERPE control rating (0-9)” value (Veronica persica [17]) was 9 (complete kill) and the “ZEAMX control rating (0-9)” value (Zea mays [18]) was 0 (no effect). The “ABUTH control rating (0-9)” value (Abutilon theophrasti [19]) was 9 (complete kill), the “ALOMY control rating (0-9)” value (Alopecurus myosuroides [20]) was 5 (definite injury) and the “AMARE control rating (0-9)” value (Amaranthus retroflexus [21]) was 9 (complete kill). For the same molecule, the “AMBEL control rating (0-9)” value (Ambrosia artemisifolia [22]) was 8 (approaching complete kill), the “CHEAL control rating (0-9)” value (Chenopodium album [23]) was 9 (complete kill) and the “GALAP control rating (0-9)” value (Galium aparine [24]) was 7 (good herbicidal effect). The “GLXMA control rating (0-9)” value (Glycine max [25]) was 8 (approaching complete kill), the “GOSHI control rating (0-9)” value (Gossypium hirsutum [26]) was 9 (complete kill) and the “HORVW control rating (0-9)” value (Hordeum vulgare [27]) was 5 (definite injury). For the same molecule, the “IPOHE control rating (0-9)” value (Ipomoea hederacea [28]) was 9 (complete kill), the “LAMPU control rating (0-9)” value (Lamium purpureum [29]) was 9 (complete kill) and the “MATIN control rating (0-9)” value (Matricaria inodora [30]) was 9 (complete kill). The “PAPRH control rating (0-9)” value (Papaver rhoeas [31]) was 9 (complete kill), the “SETVI control rating (0-9)” value (Setaria viridis [32]) was 9 (complete kill) and the “STEME control rating (0-9)” value (Stellaria media [33]) was 9 (complete kill). For the same molecule, the “TRZAW control rating (0-9)” value (Triticum aestivum [34]) was 4 (injury), the “VERPE control rating (0-9)” value (Veronica persica [35]) was 9 (complete kill) and the “ZEAMX control rating (0-9)” value (Zea mays [36]) was 2 (slight effect).

— EP0726263A2, “Herbicidal (1,3,4)oxadiazoles and thiadiazoles” (American Cyanamid Company, priority 1995, dated 1996)
